We go through one compound from paper PMC3763632, “Radiosynthesis and Radiotracer Properties of a 7-(2-[^18F]Fluoroethoxy)-6-methoxypyrrolidinylquinazoline for Imaging of Phosphodiesterase 10A with PET” (Pharmaceuticals, 2012).

The target in the test is T1, PDE10A (Rattus norvegicus, UniProt Q9QYJ6).
T1 construct: Frozen sagittal brain sections (12 μm) obtained from female SPRD rats (8–10 weeks); from tissue; host or cells: rat brain sections (female SPRD rats)
T1 sequence (Q9QYJ6 1-794): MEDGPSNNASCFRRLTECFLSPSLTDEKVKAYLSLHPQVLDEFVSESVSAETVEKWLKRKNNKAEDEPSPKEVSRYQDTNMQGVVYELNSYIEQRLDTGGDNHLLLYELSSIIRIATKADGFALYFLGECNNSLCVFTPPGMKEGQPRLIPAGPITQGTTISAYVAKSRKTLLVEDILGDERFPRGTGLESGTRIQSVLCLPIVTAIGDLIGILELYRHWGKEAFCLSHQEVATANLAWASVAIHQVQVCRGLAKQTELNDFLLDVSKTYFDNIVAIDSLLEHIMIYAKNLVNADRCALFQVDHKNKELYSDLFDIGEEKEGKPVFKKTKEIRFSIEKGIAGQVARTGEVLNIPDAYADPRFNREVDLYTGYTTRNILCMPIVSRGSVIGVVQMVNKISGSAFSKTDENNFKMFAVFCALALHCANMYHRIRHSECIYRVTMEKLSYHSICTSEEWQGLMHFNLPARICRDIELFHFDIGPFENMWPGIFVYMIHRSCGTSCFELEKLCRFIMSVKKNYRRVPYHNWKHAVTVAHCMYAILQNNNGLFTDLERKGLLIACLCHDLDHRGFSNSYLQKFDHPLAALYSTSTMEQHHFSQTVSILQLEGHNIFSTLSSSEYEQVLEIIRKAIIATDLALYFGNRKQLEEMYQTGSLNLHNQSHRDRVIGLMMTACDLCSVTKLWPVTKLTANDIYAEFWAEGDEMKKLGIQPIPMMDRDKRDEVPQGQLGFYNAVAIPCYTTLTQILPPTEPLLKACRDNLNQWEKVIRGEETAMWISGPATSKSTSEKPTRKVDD
Description: In vitro autoradiography on sagittal rat brain slices. It is filed as binding. The conditions noted are these: 25 nM [18F]IV. The text has this:
Figure 3 Representative color-coded autoradiographic images of sagittal rat brain slices. […] CP, caudate putamen; NA, nucleus accumbens; OT, olfactory tubercle; Th, thalamus; Hi, hippocampus; SN, substantia nigra; Cb, cerebellum; Co, cortex; OB, olfactory bulb; PN, pontine nuclei.
This pattern corresponds with the immunohistochemical localization of PDE10A in rat brain described in Seeger et al..
Therefore, species-specific patterns of PDE expression have to be considered in the development of PDE10A targeting PET ligands based on the herein reported quinazoline structures. […]
Frozen sagittal brain sections (12 μm) obtained from female SPRD rats (8–10 weeks) were thawed, dried in a stream of cold air, preincubated for 20 min with 50 mM TRIS-HCl, pH 7.4, at room temperature, and dried again. […] After incubation, sections were washed twice for 2 min with 50 mM TRIS-HCl, pH 7.4 at 4 °C, dipped briefly in ice-cold deionized water (5 s), dried in a stream of cold air, and exposed for 17 h to ^18F-sensitive storage phosphor screens, which were analyzed using the BAS-1800 II system (see above).

Structures are written as SMILES.

Consider `COc1cc2c(N3CC[C@@H](Oc4cnc5ccccc5n4)C3)ncnc2cc1OCC[18F]` [[^18F]IV, (R)-7-(2-[^18F]Fluoroethoxy)-6-methoxy-4-(3-(quinoxalin-2-yloxy)pyrrolidin-1-yl)quinazoline], for which, for the setting “10 μM IV, 60 min”, the “binding of [18F]IV on rat brain slices, co-incubation with IV” value is “saturable binding”. In addition, the “inhibition of [18F]IV binding on rat brain slices by MP-10” value (10 μM MP-10, 60 min) is “not completely inhibited”.
